According to PubChem BioAssay AID179 (DTP/NCI, 2004):
Values joined by “and” are separate entries in the source; they are usually repeats but may differ in a detail not shown here. Equal values may be shown once. Active and inactive are the calls of the source.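 Rule for the calls: active = compounds giving half or more protection of infected cells from virus-caused growth loss, again on retest; inactive = the rest.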

Test system: CEM cells HIV-1 protection, formazan growth assay
Assay: NCI AIDS Antiviral Assay
Settings: for IC50: measured here: growth of uninfected CEM cells
Summary of the method: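 Human CEM cells, uninfected and HIV-1-infected, exposed to five drug concentrations; growth measured by soluble formazan assay and scored as percent protection from infection, with protecting compounds retested.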

Row | Compound | EC50 [µM] | IC50 | outcome
1 | CCOC(=O)C(=O)Nc1c(C)cccc1CC | > 776 | > 776 µM | –
2 | CCOC(=O)C1C(c2ccc(OC)cc2)c2c([nH][nH]c2=O)CC1(O)OCC (centres undefined) | – | – | inactive
3 | COc1cc2c3cc1Oc1c(OC)c(OC)cc4c1[C@@H](Cc1ccc(O)c(c1)Oc1ccc(cc1)C[C@@H]3N(C)CC2)N(C)CC4 | – | – | inactive
4 | COC(=O)c1cc(=O)n(C)c2ccc(OC)cc12 | > 200 | 166 µM | –
5 | CC(C)(C)OC(=O)Cn1ncn(NC(=O)Cc2ccccc2)c1=O | > 200 | > 200 µM | –
6 | COc1ccc(/C=C2/C(=O)N=C(NC(C)=O)N2C)cc1OC | > 200 | > 200 µM | –
7 | COc1cc2c3c(c1OCc1ccccc1)NCCC3NCC2 (centres undefined) | – | – | inactive
8 | CN(C)CCOc1ccc([N+](=O)[O-])c2cccnc12 | > 100 | 50.1 µM | –
9 | O=C(ON=c1c2ccccc2ccc2ccccc12)c1ccccc1 | > 200 | 33.9 µM | –
10 | c1ccn2nnnc2c1 | > 2090 | > 2090 µM | –
11 | COc1ccc(NC(=O)CC(=O)N2N=C(C)C(N=Nc3ccc(S(=O)(=O)c4ccc(N=NC5C(=O)N(C(=O)CC(=O)Nc6ccc(OC)cc6)N=C5C)cc4)cc3)C2=O)cc1 (centres undefined) | > 100 | 95.5 µM | –
12 | CCOC(=O)/C=C/c1cccc(OC)c1 | > 158 | > 158 µM | –
13 | CC1(O)CCC2(CCC(C)(O)CC2=O)C(=O)C1 (centres undefined) | > 200 | > 200 µM | –
14 | CC1OS(=O)(=O)CS(=O)(=O)OC1C (centres undefined) | > 1070 | 1020 µM | –
15 | O=C(/C=C/c1ccccc1Cl)c1ccccc1Cl | > 7.24 | > 7.24 µM | –
16 | COc1ccc(C2C(N)=NCC2c2ccccn2)cc1 (centres undefined) | – | – | inactive
17 | O=C1Sc2ccccc2Cn2cccc21 | 186 | > 200 µM | –
18 | NC(CCCCNC(=O)CNC(=O)OCc1ccccc1)C(=O)NC(CCCCNC(=O)CNC(=O)OCc1ccccc1)C(=O)NC(CCCCNC(=O)CNC(=O)OCc1ccccc1)C(=O)NC(CCCCNC(=O)CNC(=O)OCc1ccccc1)C(=O)NC(CCCCNC(=O)CNC(=O)OCc1ccccc1)C(=O)NC(CCCCNC(=O)CNC(=O)OCc1ccccc1)C(=O)O (centres undefined) | > 100 | > 100 µM | –
19 | CCCCCCCCCCCCCC(=O)OC1C(O)C(CO)OC(OC)C1NC(=O)N(CCCl)N=O (centres undefined) | > 34.7 | > 34.7 µM | –
20 | O=c1[nH]c(SCc2c(Cl)c(Cl)c(Cl)c(Cl)c2Cl)nc(=S)[nH]1 | > 200 | 83.2 µM | –
21 | COC(=O)c1cnn2c1ccc1ccccc12 | > 200 | 29.5 µM | –
22 | CCCCCCCCCCCCCCCC[N+](C)(C)CCCS(=O)(=O)[O-] | – | – | inactive

Row | Compound | EC50 [µM] | IC50 | outcome
23 | O=C1C(=O)c2ccccc2C(O)=C1C(CCc1ccccc1)C1=C(O)c2ccccc2C(=O)C1=O | > 200 | 55 µM | –
24 | CC(=O)Nc1cc2c(cc1[N+](=O)[O-])-c1cc([N+](=O)[O-])c(NC(C)=O)cc1C2=O | > 200 | 25.7 µM | –
25 | CC(=O)Oc1c(Cl)cc(C(=CCC[C@H]2CC[C@@]3(C)[C@@H](CC[C@@H]4[C@@H]3CC[C@]3(C)[C@@H](C(C)CCCC(C)C)CC[C@@H]43)C2)c2cc(Cl)c(OC(C)=O)c(C(=O)OCc3ccccc3)c2)cc1C(=O)OCc1ccccc1 (some centres undefined) | > 200 | > 200 µM | –
26 | CC(NC1=NCCO1)c1ccccc1Cl (centres undefined) | – | – | inactive
27 | COc1cc(C(=O)C/C(CCC(=O)Nc2ccccc2[N+](=O)[O-])=N\NC(N)=O)ccc1O | > 562 | 525 µM | –
28 | Cc1c2c(C(N)=O)nccc2c(C)c2c1c1ccccc1n2Cc1ccccc1 | – | – | inactive
29 | CC1(C)CN=CC(C)(OCc2ccccc2)C(=O)NC(C)(C)CN=CC(C)(OCc2ccccc2)C(=O)N1 (centres undefined) | > 7.24 | > 7.24 µM | –
30 | O=[N+]([O-])c1cccc2nc3ccccc3c(NCCCn3ccnc3[N+](=O)[O-])c12 | > 0.2 | 0.0457 µM | –
31 | CC(/C=C/c1ccccc1)=N/NS(=O)(=O)c1ccc([N+](=O)[O-])cc1 | > 15.1 | > 15.1 µM | –
32 | COc1ccc(OC)c(NC(=O)CCC/C(CC(=O)c2ccc(O)c(OC)c2)=N\Nc2ccc([N+](=O)[O-])cc2)c1 | > 13.2 | > 13.2 µM | –
33 | CC(C)(N)Cc1ccccc1Cl | > 200 | > 200 µM | –
34 | COC(=O)CC(=O)Nc1sccc1S(=O)(=O)c1ccccc1 | > 200 | 102 µM | –
35 | COc1nc(NC2OC(CO)C(O)C2O)cc(=O)n1C (centres undefined) | – | – | inactive
36 | C=C1CN(S(=O)(=O)c2ccc(C)cc2)CCCN(Cc2ccc[nH]2)CCCN(S(=O)(=O)c2ccc(C)cc2)C1 | > 200 | 14.5 µM | –
37 | O=C1OC(c2ccccc2)(c2ccccc2)C(=O)OC1(c1ccccc1)c1ccccc1 | > 200 | 148 µM | –
38 | COc1ccc(C2C3=C(COC3=O)Oc3cc4c(cc32)OCO4)cc1OC (centres undefined) | > 20 | 0.603 µM | –
39 | O=C(/C=C/c1ccc(Cl)c(Cl)c1)Oc1ccc(/C=C2\CCCCC2=O)cc1 | > 100 | 5.25 µM | –
40 | Cc1c(C(=O)C/C(=N\O)C(=O)Nc2cc(Cl)c(Cl)cc2Cl)[n+](=O)c2ccccc2n1[O-] | > 14.8 | > 14.8 µM | –
41 | Cn1c2ccccc2c2nnc(NCCCO)nc21 | > 200 | 148 µM | –
42 | Cc1ccc(-c2cc(-c3ccco3)c(C#N)c(=O)n2C2OC(CO)C(O)C(O)C2O)cc1 (centres undefined) | 25.7 | 81.3 µM | –
43 | O=C1CN(Cc2ccccc2)CC(=O)N2C(c3ccccc3)CCCN12 (centres undefined) | – | – | inactive
44 | NC(=O)CCN(CCC(N)=O)CCC(N)=O | > 200 | > 200 µM | –

Row | Compound | EC50 [µM] | IC50 | outcome
45 | O=C(NC12CC3CC(NC(=O)c4ccccc4)(CC(C1)c1ccccc13)C2)c1ccccc1 | > 12 | > 12 µM | –
46 | Oc1ccc(-c2cc(-c3cc(-c4ccc(O)cc4)no3)on2)cc1 | > 200 | 6.31 µM | –
47 | CCOC(=O)c1c2cccccc2n2c(=O)cc(C)nc12 | – | – | inactive
48 | CC(NC(=O)c1ccccc1)NC(=O)C(C)C(=O)Nc1ccccc1 (centres undefined) | – | – | inactive
49 | Nc1ncnc2c1ncn2C1OC(COC2C(O)C(OC3OC(CO)C(O)C(O)C3N)C(O)C(OS(=O)(=O)O)C2OC(=O)[C@@H](N)CO)C(O)C1O (some centres undefined) | > 200 | > 200 µM | –
50 | O=C1NC(=O)/C(=C/c2ccc(S(=O)(=O)N/N=C/c3ccccc3)cc2)N1 | > 200 | > 200 µM | –
51 | N#C/C(=C\NC(=S)Nc1ccc(S(=O)(=O)Nc2ccccn2)cc1)C(N)=O | > 200 | > 200 µM | –
52 | CC1=C(/C=C/C(C)=C/C=C/C(C)=C/C(=O)O)C(C)(C)CCC1 | – | – | inactive
53 | CS(=O)(=O)N1CC(CCl)c2ccc(O)cc21 (centres undefined) | > 200 | 1.86 µM | –
54 | COc1cc([N+](=O)[O-])c(OC)c2c(Nc3ccc(S(=O)(=O)O)c4cc(S(=O)(=O)O)cc(S(=O)(=O)O)c34)cc(C)nc12 | > 200 | > 200 µM | –
55 | COC(CNC(=O)CNC(=O)c1ccc(C(F)(F)F)cc1)OC | – | – | inactive
56 | COc1cc2c(cc1OC)[C@@](C)(C(O)C(O)C(C)(C)O)NCC2 (some centres undefined) | > 200 | > 200 µM | –
57 | O=C1NC(N2CCOCC2)=N/C1=C\c1ccccc1O | > 200 | > 200 µM | –
58 | CC1=NN(C2=NS(=O)(=O)c3ccccc3N2C)C(=O)C1 | > 123 | > 123 µM | –
59 | CN(C)CC1Cc2ccsc2C1=O (centres undefined) | > 155 | 2.63 µM | –
60 | CC(C)(N)C(=O)N[C@@H]1C(=O)N2[C@@H]1SC(C)(C)[C@@H]2C(=O)O | > 200 | > 200 µM | –
61 | COc1cc(/C=C/C(=N\NC(=S)NN)c2sc(NNC(C)=O)nc2C)ccc1O | > 12 | > 12 µM | –
62 | CC1CC(C)C(=O)C(C(=O)CC2CC(=O)NC2=O)C1 (centres undefined) | > 200 | > 200 µM | –
63 | O=C1CCCCC1CN1CCCC1 (centres undefined) | – | – | inactive
64 | CC(=O)N(C(C)=O)C1=C2c3ccccc3N(S(=O)(=O)c3ccccc3)C2n2c(=O)n(-c3ccccc3)c(=O)n2C1 (centres undefined) | > 9.33 | > 9.33 µM | –
65 | N#Cc1nc(C#N)n(C(=O)c2ccccc2)c1NC(=O)c1ccccc1 | > 200 | > 200 µM | –
66 | CSCCCNC(=O)c1csc(-c2csc(CCNC(=O)CNC(=O)CNC(=O)OC(C)(C)C)n2)n1 | > 447 | 214 µM | –

Row | Compound | EC50 [µM] | IC50 | outcome
67 | COC(=O)/C=C/C(=N/Nc1ccccc1)c1ccccc1 | > 200 | 28.8 µM | –
68 | CCSc1nc2n(c(=S)n1)CCN2C | > 708 | 138 µM | –
69 | O/N=C1\CCc2nonc2\C1=N/Nc1ccccc1 | > 200 | > 200 µM | –
70 | Cc1cc(=O)[nH]c(NNC(C#N)c2cccc([N+](=O)[O-])c2)n1 (centres undefined) | > 45.7 | > 45.7 µM | –
71 | C[C@]12CC[C@H]3[C@@H](CCC4=CC(=O)[C@H](Br)C[C@@]43C)[C@@H]1CC[C@@H]2C(=O)CBr | > 2 | 0.316 µM | –
72 | N=c1nc(N)n2c(N)nc(=N)n12 | > 155 | > 155 µM | –
73 | CNc1ccc(Cl)cc1S(=O)(=O)c1ccccc1 | 6.03 | > 200 µM | –
74 | CC1(C)C2CCC1(CS(=O)(=O)O)C(=O)C2 (centres undefined) | > 200 | > 200 µM | –
75 | O=C(O)CSc1n[nH]c(-c2ccccc2O)n1 | > 372 | 182 µM | –
76 | Cc1ccc(S(=O)(=O)NNCNC(=O)c2ccccc2)cc1 | – | – | inactive
77 | CCOC(=O)c1sc(C(=O)OCC)c2c1-c1cccc3cccc-2c13 | > 200 | > 200 µM | –
78 | N#CCCN(CCC#N)c1ccc(/C=C(\NC(=O)c2cc([N+](=O)[O-])ccc2Cl)C(=O)Nc2ccccc2)cc1 | > 13.2 | > 13.2 µM | –
79 | Cc1occc1C(=S)Nc1ccc(Cl)c(COC(C)(C)C)c1 | 5.13 | 29.5 µM | –
80 | CN1CCN(CCCN2CC(=O)N3Cc4ccccc4CN3C(=O)C2)CC1 | > 200 | > 200 µM | –
81 | Cc1cc(S(=O)(=O)O)ccc1N=Nc1ccc(N=Nc2cc(S(=O)(=O)O)c3ccccc3c2O)c(C)c1 | > 100 | > 100 µM | –
82 | COc1ccc(COCC[C@H](C)OC2OC(CO)C(O)C(O)C2O)cc1 (some centres undefined) | > 200 | > 200 µM | –
83 | Cc1c(C(=O)O)oc2ccc([N+](=O)[O-])cc12 | – | – | inactive
84 | Cc1cccc(C2NC(=S)N3C(c4cccc(C)c4)NC(=S)N23)c1 (centres undefined) | – | – | inactive
85 | O=c1ccn(CC2OCC(CO)O2)c(=O)[nH]1 (centres undefined) | > 2750 | 1150 µM and > 2750 µM | –
86 | COc1ccc2[nH]c3c([N+](=O)[O-])ccc(Cl)c3c(=O)c2c1 | – | – | inactive
